Test results published in patent US8273357B2, “Antigen-carbohydrate conjugates” (Massachusetts Institute of Technology, priority 2004, dated 2012).

Assays:
[1] = system: CD11c+ dendritic cells / OTII T cells; test: Antigen presentation assay, purified CD11c+ dendritic cells and purified OTII T cells; format: cell-based, mouse
Description: FIGS. 4A, 4B, 4C and 4D are graphs showing that CD11c^+ dendritic cells are the main antigen presenting cells presenting 3-1-targeted antigen. […] 1.5×10^4 Splenic CD11c^+ dendritic cells purified from C57BL/6 mice and 3.0×10^4 purified OTII T cells were incubated with OVA (starting concentration 300 μg mL^−1) or (OVA)-3-1 (starting concentration 25 μg mL^−1) in graded doses for eight-four hours with [^3H]thymidine (1 μCi) added for the last twelve hours. […] Purified CD11c^+ dendritic cells and OTII T cells were incubated with (OVA)-3-1 (25 μg mL^−1)±each potential inhibitor (100 μg mL^−1). T cell proliferation was determined as for FIG. 4A. […] CD11c^+ dendritic cells and OTII T cells were incubated with OVA or (OVA)-3-1±lipopolysaccharide ([…]). Also included are all ‘non-dendritic cells’ (macrophages and B cells) obtained during the purification of the dendritic cells. T cell proliferation was determined as described in FIG. 4A. […] Supernatants from cells described in FIG. 4C were collected at forty-eight and seventy-two hours and measured for IFN-γ by ELISA; the values presented are from the seventy-two hour time point. All measurements here were performed in triplicate.
To confirm that the increased T cell proliferation observed with (OVA)-3-1 was due to the selective uptake of this conjugate by dendritic cells and not B cells or macrophages, purified CD11c^+ dendritic cells were prepared from wild-type C57BL/6 mice and the OVA-specific T cells from transgenic OTII mice (see Materials & Methods). The in vitro antigen presentation assays described above were then repeated. […] By comparison, >50-fold more unmodified OVA was required to obtain similar levels of T cell proliferation. When B cells and macrophages were used as antigen-presenting cells in place of purified dendritic cells, the resulting T cell responses were negligible (FIG. 4C), providing strong confirmation that CD11c^+ dendritic cells are the main antigen-presenting cells mediating uptake and presentation of (OVA)-3-1 to OTII T cells.
(§1) Pooled inguinal lymph nodes were dissociated in 10% Fetal Bovine Serum RPMI (supplemented with 2 mM L-glutamine) and either mechanically dissociated between two glass slides or, to improve the overall cell yield, incubated in the presence of collagenase (Boehringer) and EDTA for 25 minutes at 37° C./5% CO2 to dissociate DC-T cell clusters. For antigen presentation assays with whole splenocytes, isolated spleens were injected with collagenase/EDTA, gently teased apart and incubated as described above. Splenocytes were cultured in 96-well round-bottom plates at a density of 3×10^5 cells/0.2 mL. In antigen presentation assays utilizing purified dendritic cells and T cells, dendritic cells were isolated from the spleens of C57BL/6 mice following collagenase/EDTA treatment by labeling the dendritic cells with commercially available magnetic microbeads linked to an anti-CD11c^+ antibody (Miltenyi Biotec, Bergisch Gladbach, Germany) (according to the Miltenyi Biotec protocol) and separating labeled Dendritic cells from non-dendritic cells by application of a magnetic field. Similarly, purified […] T cells were obtained from spleens of OTII transgenic mice using magnetic beads Dynal (Oslo, Norway). Purified dendritic cells and T cells were seeded onto 96-well plates round-bottom Plates at a 1:2 DC:T cell ratio unless stated otherwise in the Figures.

DC-SIGN = target: T1, DC-SIGN (Homo sapiens, UniProt Q9NNX6); conditions: carbohydrate profiling by another group; cited from earlier work
T1 sequence (Q9NNX6 1-404): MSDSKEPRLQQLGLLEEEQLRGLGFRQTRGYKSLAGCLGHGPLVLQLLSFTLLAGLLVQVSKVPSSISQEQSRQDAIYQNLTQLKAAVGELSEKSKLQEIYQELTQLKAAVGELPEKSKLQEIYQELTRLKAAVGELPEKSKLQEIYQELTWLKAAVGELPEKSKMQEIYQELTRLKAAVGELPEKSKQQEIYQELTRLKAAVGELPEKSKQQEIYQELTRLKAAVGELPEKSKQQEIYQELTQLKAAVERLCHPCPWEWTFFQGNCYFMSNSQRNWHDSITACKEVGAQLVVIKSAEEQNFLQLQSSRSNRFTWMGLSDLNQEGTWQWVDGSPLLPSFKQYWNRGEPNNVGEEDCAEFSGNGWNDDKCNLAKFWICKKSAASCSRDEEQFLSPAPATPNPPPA

[2] = system: OTII (CD4+) T cells in unfractionated splenocytes; test: Antigen presentation assay, unfractionated OTII splenocytes, [3H]thymidine T cell proliferation; format: cell-based, mouse; conditions: OTII splenocytes
Description: FIG. 2B is a graph showing that oligosaccharide modification of OVA elicits stronger presentation to OTII T cells than unmodified OVA. Unfractionated OTII splenocytes (3×10^5/well) were incubated with graded doses of OVA or oligosaccharide-modified OVA for eighty-four hours with [^3H]thymidine (1 μCi) added for the last 12 hours. Thereafter [^3H]thymidine incorporation levels were measured and plotted. FIG. 2C is a graph showing that observed enhancements in antigen presentation of (OVA)-3-1 to T cells is carbohydrate dependent. Splenocytes were incubated with antigen as in (B)±(BSA)-3-1 (10 μg mL^−1). In cases where (OVA)-3-1 was added to OVA wells to assess the possibility of direct activation of T cells (see text), (OVA)-3-1 was present at 50 ng mL^−1; incubations were performed for seventy-two hours with [^3H]thymidine (1 μCi) added for the last 12 hours. FIG. 2D is a graph showing that the receptor mediated uptake of (OVA)-3-1 has a different binding profile than that observed for DC-SIGN. Unfractionated splenocytes were incubated with OVA or (OVA)-3-1±mBSA or Lewis^x-BSA (each at 100 μg mL^−1). Incubations were performed for seventy-two hours with [^3H]thymidine (1 μCi) added for the last twelve hours. All values reported are the mean of triplicate measurements.
The ability of these conjugates to enhance antigen uptake by dendritic cells was assessed in comparison to unmodified OVA by incubating graded doses of conjugate and OVA with unfractionated splenocytes (containing T cells, B cells, dendritic cells, macrophages) isolated from OTII (CD4^+) transgenic mice. The ability of dendritic cells to present antigenic peptides derived from targeted proteins was measured as a function of T cell proliferation in response to those presented peptides. T cell proliferation is quantified by [^3H]thymidine incorporation during cellular division.
as §1

CIRE = target: T2, CIRE (Mus musculus, UniProt Q91ZX1); test: Binding and internalization by a cell line stably expressing CIRE; format: cell-based, murine
T2 construct: expressed in transfected cells
T2 sequence (Q91ZX1 1-238): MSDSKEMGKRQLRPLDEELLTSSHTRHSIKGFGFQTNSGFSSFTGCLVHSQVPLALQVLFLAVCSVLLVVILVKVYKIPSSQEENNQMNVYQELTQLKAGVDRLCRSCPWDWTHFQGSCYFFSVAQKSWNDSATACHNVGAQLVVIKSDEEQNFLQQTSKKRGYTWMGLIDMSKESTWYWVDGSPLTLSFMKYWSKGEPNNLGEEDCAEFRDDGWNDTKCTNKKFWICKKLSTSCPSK
Description: To identify the receptor mediating uptake of the oligosaccharides employed herein, the murine DC-SIGN homolog CIRE^10 was analyzed as a potential receptor; a cell line stably expressing this lectin was used to assay for binding and internalization of fluorophore-labeled 3-1 and fluorophore-labeled (OVA)-3-1. […] The receptor may be identified biochemically, for example, by cross-linking it to bound (OVA)-3-1 and immunoprecipitating the complex with polyclonal sera raised against ovalbumin. Identification of the receptor would enable the determination of its human homolog.

[3] = target: T3, (OVA)-3-1, ovalbumin conjugated to the synthetic high-mannose nonasaccharide 3-1 (fluorophore-labeled in the … (UniProt P01012 2-386, average of three saccharides of structure 3-1 per molecule of OVA, coupled through the Sulfo-SMCC maleimide crosslinker to the thiol-bearing linker of the saccharide (sites not given); fluorophore …); test: binding and internalization of fluorophore-labeled (OVA)-3-1 on a cell line stably expressing CIRE
T3 construct: Neoglycoprotein; also called fluorophore-labeled (OVA)-3-1; carbohydrate-OVA conjugate
T3 sequence (looked up): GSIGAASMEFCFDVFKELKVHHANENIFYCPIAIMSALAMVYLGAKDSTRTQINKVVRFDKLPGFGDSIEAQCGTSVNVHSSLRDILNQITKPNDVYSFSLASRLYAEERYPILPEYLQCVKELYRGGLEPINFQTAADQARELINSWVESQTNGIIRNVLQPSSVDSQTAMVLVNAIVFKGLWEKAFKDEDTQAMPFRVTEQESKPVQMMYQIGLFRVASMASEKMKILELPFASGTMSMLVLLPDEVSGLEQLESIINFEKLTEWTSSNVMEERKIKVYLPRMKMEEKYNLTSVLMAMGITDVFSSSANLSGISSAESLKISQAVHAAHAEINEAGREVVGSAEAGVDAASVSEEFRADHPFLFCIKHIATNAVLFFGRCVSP
Description: To identify the receptor mediating uptake of the oligosaccharides employed herein, the murine DC-SIGN homolog CIRE[10] was analyzed as a potential receptor; a cell line stably expressing this lectin was used to assay for binding and internalization of fluorophore-labeled 3-1 and fluorophore-labeled (OVA)-3-1. […] The receptor may be identified biochemically, for example, by cross-linking it to bound (OVA)-3-1 and immunoprecipitating the complex with polyclonal sera raised against ovalbumin. Identification of the receptor would enable the determination of its human homolog.

[4] = (OVA)-3-1 25 μg mL^−1, inhibitor 100 μg mL^−1

Molecule: CC(=O)N[C@H]1C(O)O[C@H](CO)[C@@H](O[C@@H]2O[C@H](CO)[C@H](O)[C@H](O)[C@H]2O)[C@@H]1O[C@@H]1O[C@@H](C)[C@@H](O)[C@@H](O)[C@@H]1O (stereo partly drawn) [Lewis^x, reference compound]
- inhibitory effect on (OVA)-3-1 presentation by dendritic cells [1, 4]: marginal effects
- recognition by DC-SIGN (DC-SIGN): can recognize

Molecule: bovine serum albumin [BSA, reference compound]
- effect of co-incubated protein on (OVA)-3-1 uptake / OTII proliferation ([2]; (BSA)-3-1 10 μg mL^−1, 72 h): did not affect

Molecule: invertase: high-mannose-bearing glycoprotein [reference compound]
- reduction (inhibition) of (OVA)-3-1 presentation [1, 4]: 18%
- concentration giving inhibition of (OVA)-3-1 presentation ([1]; similar level of inhibition as mannose): 0.5 µM

Molecule: mannan [reference compound]
- reduction (inhibition) of (OVA)-3-1 presentation [1, 4]: 31%

B1: (OVA)-3-7: ovalbumin conjugate of monosaccharide galactose 3-7 (conjugate, UniProt P01012 2-386, looked up)
Ovalbumin: GSIGAASMEFCFDVFKELKVHHANENIFYCPIAIMSALAMVYLGAKDSTRTQINKVVRFDKLPGFGDSIEAQCGTSVNVHSSLRDILNQITKPNDVYSFSLASRLYAEERYPILPEYLQCVKELYRGGLEPINFQTAADQARELINSWVESQTNGIIRNVLQPSSVDSQTAMVLVNAIVFKGLWEKAFKDEDTQAMPFRVTEQESKPVQMMYQIGLFRVASMASEKMKILELPFASGTMSMLVLLPDEVSGLEQLESIINFEKLTEWTSSNVMEERKIKVYLPRMKMEEKYNLTSVLMAMGITDVFSSSANLSGISSAESLKISQAVHAAHAEINEAGREVVGSAEAGVDAASVSEEFRADHPFLFCIKHIATNAVLFFGRCVSP
modifications: carbohydrate conjugate
- enhancement of antigen uptake and presentation to T cells (T cell proliferation) compared to unmodified OVA ([2]; graded doses): did not promote increased presentation at all

B2: fluorophore-labeled (OVA)-3-1: fluorophore-labeled (OVA)-3-1 (conjugate)
chain: GSIGAASMEFCFDVFKELKVHHANENIFYCPIAIMSALAMVYLGAKDSTRTQINKVVRFDKLPGFGDSIEAQCGTSVNVHSSLRDILNQITKPNDVYSFSLASRLYAEERYPILPEYLQCVKELYRGGLEPINFQTAADQARELINSWVESQTNGIIRNVLQPSSVDSQTAMVLVNAIVFKGLWEKAFKDEDTQAMPFRVTEQESKPVQMMYQIGLFRVASMASEKMKILELPFASGTMSMLVLLPDEVSGLEQLESIINFEKLTEWTSSNVMEERKIKVYLPRMKMEEKYNLTSVLMAMGITDVFSSSANLSGISSAESLKISQAVHAAHAEINEAGREVVGSAEAGVDAASVSEEFRADHPFLFCIKHIATNAVLFFGRCVSP
- binding and internalization by CIRE-expressing cell line (CIRE): did not reveal any interactions

B3: CIRE, murine DC-SIGN homolog (receptor)
chain: MSDSKEMGKRQLRPLDEELLTSSHTRHSIKGFGFQTNSGFSSFTGCLVHSQVPLALQVLFLAVCSVLLVVILVKVYKIPSSQEENNQMNVYQELTQLKAGVDRLCRSCPWDWTHFQGSCYFFSVAQKSWNDSATACHNVGAQLVVIKSDEEQNFLQQTSKKRGYTWMGLIDMSKESTWYWVDGSPLTLSFMKYWSKGEPNNLGEEDCAEFRDDGWNDTKCTNKKFWICKKLSTSCPSK
- binding result [3]: no binding
